# PMC9597362, “The thiophene α-terthienylmethanol isolated from Tagetes minuta inhibits angiogenesis by targeting protein kinase C isozymes α and β2” (Frontiers in Pharmacology, 2022)
# Like-named read-outs stand apart in the source and are kept apart here.
# Assays:
# [1] = test system: 1:1 mixture of recombinant PKC-α and -β2 isozymes; details: 1:1 mixture α and β, cited from earlier work; for Log(IC50/M): given as log of IC50 in M (negative)
# [2] = test system: bovine aortic endothelial cells (BAECs); assay: VEGF-induced tube formation assay; type: cell-based; details: for antiangiogenic activity in tube formation: pure compounds, maximum concentration 30 μM; for IC50: Bos taurus, BAEC
# Method: The experiment was performed according to Arnaoutova and Kleinman ([Arnaoutova and Kleinman, 2010]). Briefly, BAECs (1.5 × 10^4 cells) were placed on a 96-well plate previously coated with Matrigel®. The plates were incubated for 18 h (37°C, 5% CO2) in the presence and absence of the tested extracts or the pure compounds, at a maximum concentration of 100 μg/ml and 30 μM, respectively, with the addition of VEGF (10 ng/ml) as angiogenic stimuli. […] Controls without or with ethanol (negative control) were simultaneously run. The final concentration of vehicle per well in this and all the experiments described herein was 1% v/v. […] The images were obtained with an inverted microscope and analyzed with the ImageJ software. The tubular structures were quantified. The percentages of inhibition (I%) were calculated as I% = [1−(total tube length treatment/total tube length control)] × 100. Each condition was assessed in triplicate. Each experiment was performed independently three times.
# PKC-α = details: cited from earlier work; for Log(IC50/M): given as log of IC50 in M (negative)
# PKC-β = details: cited from earlier work; for Log(IC50/M): given as log of IC50 in M (negative)
# MDA-MB-231 cells = assay: Matrigel (Boyden chamber) invasion assay, MDA-MB-231; type: cell-based, human; details: 30 μM, 16 h, 10% FBS chemoattractant
# BAEC cells = assay: Matrigel (Boyden chamber) invasion assay, BAEC; type: cell-based, bovine; details: 24 h, VEGF 10 ng/ml chemoattractant, relative to control
smiles,measurement,setting,value
"c1csc(-c2ccc(-c3cccs3)s2)c1 [TT, Terthiophene]",IC50,[1]; ref Kim et al. (1998),10 µM
same,Log(IC50/M),[1]; ref Kim et al. (1998),−5.0000
O=Cc1ccc(-c2ccc(-c3ccc(C=O)s3)s2)s1 [DAT],IC50,[1]; ref Kim et al. (1998),0.3 µM
same,Log(IC50/M),[1]; ref Kim et al. (1998),−6.5229
"Cc1ccc(-c2ccc(C#CCCO)s2)s1 [Compound 1, 5′-methyl-[5-(4-hydroxy-1-butynyl)]-2,2′-bithiophene]",antiangiogenic activity in tube formation,[2],devoid of activity
"CC1CNCCN1S(=O)(=O)c1cccc2cnccc12 (stereo not drawn) [H7, 1-(5-Isoquinolinesulfonyl)-2-methylpiperazine]",IC50,[1]; ref Kinsella et al. (1992),40 µM
same,Log(IC50/M),[1]; ref Kinsella et al. (1992),−4.3979
"OCCC#Cc1ccc(-c2cccs2)s1 [Compound 2, 5-(4-hydroxybut-1-ynyl)-2,2′-bithiophene]",antiangiogenic activity in tube formation,[2],devoid of activity
"N=C(N)NCCNS(=O)(=O)c1cccc2cnccc12 [H4, N-(2-guanidinoethyl)isoquinoline-5-sulfonamide]",IC50,[1]; ref Kinsella et al. (1992),10 µM
same,Log(IC50/M),[1]; ref Kinsella et al. (1992),−5.0000
"CN1CCN(c2nc(C3=C(c4c[nH]c5ccccc45)C(=O)NC3=O)c3ccccc3n2)CC1 [NVP, 3-(1H-indol-3-yl)-4-[2-(4-methylpiperazin-1-yl)quinazolin-4-yl]-1H-pyrrole-2,5-dione]",Log(IC50/M),"PKC-α; PKC α, ref Evenou et al. (2009)",−9.0223
"OCc1ccc(-c2ccc(-c3cccs3)s2)s1 [Compound 3, 5-hydroxymethyl-2,2':5′,2″-terthiophene]",reduction of cell invasion,MDA-MB-231 cells,32.7 ± 3.1%
same,invasive cells,BAEC cells; 10 μM,15.7 ± 2.5%
same,invasive cells,BAEC cells; 30 μM,1.6 ± 0.4%
same,IC50,"[2]; conversion of the μM value, read-out: IC50 tube formation expressed",~0.8 µg/mL
same,IC50,"[2]; pure compound, VEGF-induced, 18 h, read-out: IC50 tube formation",2.7 ± 0.4 µM
same,antiangiogenic effect compared with axitinib 10 μM,"[2]; at 1.2 μM, p > 0.05",comparable to that of 10 μM of the potent angiogenesis inhibitor axitinib
same,IC50,[1]; ref Kim et al. (1998),4 µM
same,Log(IC50/M),"PKC-α; listed for PKC α, ref Kim et al. (1998)",−5.3979
same,Log(IC50/M),"PKC-β; listed for PKC β, ref Kim et al. (1998)",−5.3979
same,IC50,"PKC-β; listed for PKC β, source assay used 1:1 mixture of PKC-α and -β2, ref Kim et al. (1998)",4 µM
